Test system: Caenorhabditis elegans
Assay: C. elegans L1 nematicidal dose response in 96-well plates, 5 day visual score (Example 2; same procedure for Example 7, Table 3)
Format: in vivo
Parameters: key to 5 Day Visual Score V1 / 5 Day Visual Score V2 / 5 Day Visual Score V3 / 5 Day Visual Score V4 / 5 Day Visual Score V6 / 5 Day Visual Score V5 / Initial HTS Run Visual Score / Follow-up HTS Run Visual Score: Dead: only stiff L1s (no movement); Dead (L4): worms are dead, but at a later larval stage; majority of worms are L1 (based on size) worms move when plate is tapped; majority of worms are L2 (based on size); majority of worms are L3 (based on size); majority of worms are L4 (based on size); AD: majority of worms are adult; #AD: 5 adult worms or less; B!: sterile (0-25 progeny); B: low broodsize (25-100 progeny); ˜B: moderate broodsize (100-250 progeny); <: reduced broodsize (250-500 progeny); OK: no effect (˜1000+ progeny)
Experimental: Caenorhabditis elegans adults were grown on Nematode Growth Medium (NGM) until they produced eggs, then the adults were removed.
The eggs were allowed to hatch, and the L1 larvae collected. See The Nematode Caenorhabditis elegans (1988) Cold Spring Harbor Laboratory Press. Using a Matrix Programmable Pipette, the L1s were distributed into 96-well tissue culture plates, 20 L1 in 50 μl NGM per well. Antibiotic/Antimyoticwas added to each well, and 1% by weight E. coli strain HB101. The subject anthelmintic compounds were stored at 5 mM in 100% DMSO. 0.7 μl of compounds 1-31 were added to the left-most column of wells to yield a final concentration of 70 μM in 1.4% DMSO, with 1.4% DMSO only as the control. The compounds were then subjected to 5 more 3-fold dilutions from left to right to yield 6 column concentrations of 70 μM, 23.3 μM, 7.8 μM, 2.6 μM, 0.9 μM, and 0.3 μM. Plates were stored in air-tight Rubbermaid plastic boxes at 20° C. The nematodes had cleared all control wells by day 4, and nematode viability was scored by visual examination under a 100× dissecting microsope on day 5. A visual viability scoring system was used as follows:
Column V1 has a compound concentration of 70 μM with sequential 3-fold dilutions reported in columns V2, V3, V4, V5, and V6, respectively, such that the V6 concentration was 0.3 μM.
The nematicidal activity of anthelmintic Compositions 48-168 were determined in accordance with the procedure outlined in Example 2.

[1] = dose response, dilution V1, day 5
[2] = dose response, dilution V3, day 5
[3] = dose response, dilution V4, day 5
[4] = dose response, dilution V5, day 5
[5] = dose response, dilution V6, day 5
[6] = dose response, dilution V2, day 5
[7] = 0.3 μM, C. elegans L1, scored day 5
[8] = 0.9 μM, C. elegans L1, scored day 5
[9] = 2.6 μM, C. elegans L1, scored day 5
[10] = 7.8 μM, C. elegans L1, scored day 5
[11] = 23.3 μM, C. elegans L1, scored day 5
[12] = 70 μM, C. elegans L1, scored day 5
[13] = dose response, dilution V1, 5 day
[14] = dose response, dilution V3, 5 day
[15] = dose response, dilution V4, 5 day
[16] = dose response, dilution V5, 5 day
[17] = dose response, dilution V6, 5 day

| Compound | Follow-up HTS Run % Run [%] | Follow-up HTS Run Visual Score | Follow-up HTS Run mOD [mOD] | Initial HTS Run % Run [%] | Initial HTS Run Visual Score | Initial HTS Run mOD [mOD] | 5 Day Visual Score V1 [1] | 5 Day Visual Score V3 [2] | 5 Day Visual Score V4 [3] | 5 Day Visual Score V5 [4] | 5 Day Visual Score V6 [5] | 5 Day Visual Score V2 [6] | also measured |
| --- | --- | --- | --- | --- | --- | --- | --- | --- | --- | --- | --- | --- | --- |
| CCCCCCCCCCCCCCCCCCN(C)c1nc(N2CCN(c3c(C)cccc3C)CC2)ns1 [compound 229] | 81 | 5AD/B | 130 | 125 | Dead | 137 | Dead | #AD/˜B | OK (no effect (˜1000+ progeny)) | OK (no effect (˜1000+ progeny)) | OK (no effect (˜1000+ progeny)) | – | – |
| CCN(Cc1ccccc1)c1nc(N2CCN(c3ccc(F)cc3)CC2)ns1 [compound 237] | 117 | – | 189 | 133 | – | 146 | L1 | L1 | < (reduced broodsize (250-500 progeny)) | OK (no effect (˜1000+ progeny)) | OK (no effect (˜1000+ progeny)) | L1 | – |
| CCC(=O)C(C)C(Nc1cc(Br)c(C)c(Br)c1)c1ccc(C)o1 (stereo not shown) [AKC 131] | – | – | – | – | – | – | – | – | – | – | – | – | 5 Day Visual Score V6 [7]: < (reduced broodsize (250-500 progeny)); 5 Day Visual Score V5 [8]: #AD/˜B; 5 Day Visual Score V4 [9]: #AD/˜B; 5 Day Visual Score V3 [10]: #AD/˜B; 5 Day Visual Score V2 [11]: L1; 5 Day Visual Score V1 [12]: Dead |
| CN(CCc1ccccc1)c1nc(NCc2ccc(F)cc2F)ns1 [compound 294] | 116 | B! (sterile (0-25 progeny)) | 187 | 108 | L4/AD/B!-Few Eggs | 119 | – | OK (no effect (˜1000+ progeny)) | OK (no effect (˜1000+ progeny)) | OK (no effect (˜1000+ progeny)) | OK (no effect (˜1000+ progeny)) | – | – |
| CCCc1ccc(C(CC(=O)c2ccc(C)cc2)Nc2ccc(-c3ccccc3)cc2)cc1 (stereo not shown) [AKC 133] | – | – | – | – | – | – | – | – | – | – | – | – | 5 Day Visual Score V6 [7]: Dead; 5 Day Visual Score V5 [8]: Dead; 5 Day Visual Score V4 [9]: Dead; 5 Day Visual Score V3 [10]: Dead; 5 Day Visual Score V2 [11]: Dead; 5 Day Visual Score V1 [12]: Dead |
| Cc1cccc(C)c1N1CCN(c2nc(NCc3ccccc3C(F)(F)F)ns2)CC1 [compound 318] | 111 | B (low broodsize (25-100 progeny)) | 178 | 101 | B!-Clear-Few Eggs | 111 | – | – | – | – | – | – | 5 Day Visual Score V1 [13]: B (low broodsize (25-100 progeny)); 5 Day Visual Score V2 (dose response, dilution V2, 5 day): ˜B (moderate broodsize (100-250 progeny)); 5 Day Visual Score V3 [14]: OK (no effect (˜1000+ progeny)); 5 Day Visual Score V4 [15]: OK (no effect (˜1000+ progeny)); 5 Day Visual Score V5 [16]: OK (no effect (˜1000+ progeny)); 5 Day Visual Score V6 [17]: OK (no effect (˜1000+ progeny)) |
| CN(Cc1ccccc1)c1nc(NCc2c(F)cccc2F)ns1 [compound 301] | 127 | B! (sterile (0-25 progeny)) | 204 | 111 | B!-Few Eggs | 122 | – | OK (no effect (˜1000+ progeny)) | OK (no effect (˜1000+ progeny)) | OK (no effect (˜1000+ progeny)) | OK (no effect (˜1000+ progeny)) | < (reduced broodsize (250-500 progeny)) | – |
| CCN(c1nc(NCc2ccc(C(F)(F)F)cc2)ns1)C1CCCCC1 [compound 305] | 112 | L4 | 181 | 102 | – | 112 | – | OK (no effect (˜1000+ progeny)) | OK (no effect (˜1000+ progeny)) | OK (no effect (˜1000+ progeny)) | OK (no effect (˜1000+ progeny)) | < (reduced broodsize (250-500 progeny)) | – |
| C=CCN(CC=C)c1nc(NCc2ccc(C(F)(F)F)cc2)ns1 [compound 312] | 115 | – | 185 | 104 | – | 114 | – | – | – | – | – | – | 5 Day Visual Score V1 [13]: L1; 5 Day Visual Score V3 [14]: ˜B (moderate broodsize (100-250 progeny)); 5 Day Visual Score V4 [15]: OK (no effect (˜1000+ progeny)); 5 Day Visual Score V5 [16]: OK (no effect (˜1000+ progeny)); 5 Day Visual Score V6 [17]: OK (no effect (˜1000+ progeny)) |
| CCCCN(CC)c1nc(N2CCN(c3ccc(F)cc3)CC2)ns1 [compound 236] | 123 | Dead | 198 | 136 | 1AD/B | 150 | Dead | – | < (reduced broodsize (250-500 progeny)) | < (reduced broodsize (250-500 progeny)) | OK (no effect (˜1000+ progeny)) | – | – |
| COc1ccccc1-c1noc(C(C)CNC(=O)Nc2ccc(OC(F)(F)F)cc2)n1 (stereo not shown) [AKC 111] | – | – | – | – | – | – | – | – | – | – | – | – | 5 Day Visual Score V6 [7]: OK (no effect (˜1000+ progeny)); 5 Day Visual Score V4 [9]: Dead(L3/L; 5 Day Visual Score V3 [10]: L2; 5 Day Visual Score V2 [11]: Dead; 5 Day Visual Score V1 [12]: Dead |
| C=CCN(CC=C)c1nc(N2CCN(c3c(C)cccc3C)CC2)ns1 [compound 232] | 68 | Dead/1AD/B | 109 | 120 | 2AD/B | 132 | Dead | OK (no effect (˜1000+ progeny)) | OK (no effect (˜1000+ progeny)) | OK (no effect (˜1000+ progeny)) | OK (no effect (˜1000+ progeny)) | – | – |
| CCCCCCCCCCCCCCCCCCN(C)c1nc(NCc2ccc(C(F)(F)F)cc2)ns1 [compound 306] | 102 | L1 | 165 | 107 | – | 118 | L1 | – | OK (no effect (˜1000+ progeny)) | OK (no effect (˜1000+ progeny)) | OK (no effect (˜1000+ progeny)) | L1 | – |
